Laboratory results taken from publication PMC11870037 (Molecules, 2024).

Legend:
[1] = system: mice; test: Locomotor activity test; format: in vivo, mouse; settings: oral 5, 10, 20, 40, and 80 mg/kg, 15 min period
[2] = molecular target: T1, σ2 receptor (Cavia porcellus, UniProt H0V073); test: σ2 receptor binding ([3H]-DTG); settings: guinea pig brain membrane
T1 construct: from tissue; host or cells: guinea pig brain membranes

[3] = molecular target: Adrenergic α2 receptor; test: Adrenergic α2 receptor binding ([3H]-rauwolscine); settings: rat cerebral cortex
[4] = molecular target: Histamine H2 receptor (Homo sapiens, UniProt P25021); test: Histamine H2 receptor binding ([3H]tiotidine, Sf9 membranes); settings: Sf9 cells and membrane
[5] = molecular target: T2, Histamine H4 receptor (Homo sapiens, UniProt Q9H3N8); test: Histamine H4 receptor binding ([3H]Na-Methylhistamine, Sf9 membranes); settings: Sf9 cells and membrane
T2 construct: expressed in transfected cells; host or cells: Sf9 membranes

[6] = molecular target: T3, σ1 receptor (Cavia porcellus, UniProt Q60492); test: σ1 receptor binding ([3H]-(+)-pentazocine); settings: guinea pig brain membrane
T3 construct: from tissue; host or cells: guinea pig brain membranes
Description: (§1) Antagonist potency was determined according to literature, by measuring inhibition of RAMH-induced [35S]GTPγS binding in recombinant hH3R membranes as previously. The […]
(§2) Inverse agonist potency was conducted by measuring inhibition of basal [35S]GTPγS binding in recombinant hH3 Rmembranes. Test compound or vehicle was added to the wells, followed by [35S]GTPγS to a final concentration of 0.2 nM. Nonspecific binding was determined in the presence of 10 μM unlabeled GTPγS. The control agonist signal was determined in wells containing vehicle in place of the test compound, and the basal signal was determined in wells containing vehicle in place of both diluted compound and the RAMH […]
(§3) 3. Selectivity of Compound 11b for Additional Receptors […]
(§4) transporter, 3[H]-WIN35,428, rat striatum; (2) Dopamine D1 receptor, 3[H]-SCH23390, rat striatum; (3) Dopamine D2 receptor, [3H]spiperone, rat striatum; (4) Dopamine D3 receptor, [3H] 7-OH-DPAT, rat olfactory tubercle; (5) Serotonin 5-HT2A receptor, [3H]Ketanserin, rat brain cortex;
(§5) (6) Serotonin 5-HT2C receptor, [3H]mesulergine, rat brain cortex; (7) Adrenergic α2 receptor, [3H]- rauwolscine, rat cerebral cortex; (8) Histamine H2 receptor, [3H]tiotidine, Sf9 cells and […]

[7] = molecular target: Dopamine D2 receptor (Rattus norvegicus, UniProt P61169); test: Dopamine D2 receptor binding ([3H]spiperone); settings: rat striatum
[8] = molecular target: T4, SERT (Rattus norvegicus, UniProt P31652); test: biochemical; format: binding
T4 construct: [3H]-paroxetine, rat cerebral cortex; from tissue; host or cells: rat cerebral cortex (membranes / crude synaptosomes)

[9] = molecular target: T5, M5 muscarinic cholinergic receptor (Homo sapiens, UniProt P08912); test: Muscarinic M5 receptor binding (lymphocyte suspension); settings: lymphocyte suspension and sections
T5 construct: blood lymphocytes were used at a concentration of 1 × 10⁶ cells; endogenous in cells; host or cells: peripheral blood lymphocytes
Description: as §1, §2, §3, §4, §5

[10] = molecular target: T6, muscarinic M1 receptor (Homo sapiens, UniProt P11229); test: Muscarinic M1 receptor binding (peripheral blood lymphocytes); settings: lymphocyte suspension and sections
T6 construct: blood lymphocytes were used at a concentration of 1 × 10⁶ cells; endogenous in cells; host or cells: peripheral blood lymphocytes

[11] = molecular target: T7, Dopamine D3 receptor (Rattus norvegicus, UniProt P19020); test: Dopamine D3 receptor binding ([3H]7-OH-DPAT); settings: rat olfactory tubercle
T7 construct: A rat olfactory tubercle was homogenized in 20 volumes of ice; from tissue; host or cells: rat olfactory tubercle membranes

[12] = system: mice; settings: oral, immobility duration
[13] = molecular target: recombinant hH3R (Homo sapiens, UniProt Q9Y5N1); test: H3 receptor intrinsic activity assay ([35S]GTPγS binding); format: biochemical
[14] = molecular target: T4, SERT; test: Monoamine uptake transporter assay, [3H]5-HT uptake by SERT; format: biochemical
[15] = molecular target: T8, M3 muscarinic cholinergic receptor (Homo sapiens, UniProt P20309); test: Muscarinic M3 receptor binding (lymphocyte suspension); settings: lymphocyte suspension and sections
T8 construct: blood lymphocytes were used at a concentration of 1 × 10⁶ cells; endogenous in cells; host or cells: peripheral blood lymphocytes
Description: as §1, §2, §3, §4, §5

T4 sequence (P31652 whole entry): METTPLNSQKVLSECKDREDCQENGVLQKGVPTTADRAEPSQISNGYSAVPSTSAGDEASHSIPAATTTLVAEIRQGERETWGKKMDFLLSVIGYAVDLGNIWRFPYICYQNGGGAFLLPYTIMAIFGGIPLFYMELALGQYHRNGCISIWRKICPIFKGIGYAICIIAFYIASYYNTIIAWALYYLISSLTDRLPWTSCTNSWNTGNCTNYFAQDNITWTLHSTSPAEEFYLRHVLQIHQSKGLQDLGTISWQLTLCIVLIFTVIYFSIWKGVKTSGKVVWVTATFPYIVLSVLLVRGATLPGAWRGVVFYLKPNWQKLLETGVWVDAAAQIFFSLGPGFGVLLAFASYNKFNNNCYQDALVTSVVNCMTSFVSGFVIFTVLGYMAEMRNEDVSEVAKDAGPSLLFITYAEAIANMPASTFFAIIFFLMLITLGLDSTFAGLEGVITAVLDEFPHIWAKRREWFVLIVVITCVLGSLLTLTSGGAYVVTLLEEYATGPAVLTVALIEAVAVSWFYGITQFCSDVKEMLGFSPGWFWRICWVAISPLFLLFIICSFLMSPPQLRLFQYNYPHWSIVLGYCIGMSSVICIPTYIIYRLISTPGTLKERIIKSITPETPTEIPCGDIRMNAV
Sequence of recombinant hH3R (Q9Y5N1 whole entry): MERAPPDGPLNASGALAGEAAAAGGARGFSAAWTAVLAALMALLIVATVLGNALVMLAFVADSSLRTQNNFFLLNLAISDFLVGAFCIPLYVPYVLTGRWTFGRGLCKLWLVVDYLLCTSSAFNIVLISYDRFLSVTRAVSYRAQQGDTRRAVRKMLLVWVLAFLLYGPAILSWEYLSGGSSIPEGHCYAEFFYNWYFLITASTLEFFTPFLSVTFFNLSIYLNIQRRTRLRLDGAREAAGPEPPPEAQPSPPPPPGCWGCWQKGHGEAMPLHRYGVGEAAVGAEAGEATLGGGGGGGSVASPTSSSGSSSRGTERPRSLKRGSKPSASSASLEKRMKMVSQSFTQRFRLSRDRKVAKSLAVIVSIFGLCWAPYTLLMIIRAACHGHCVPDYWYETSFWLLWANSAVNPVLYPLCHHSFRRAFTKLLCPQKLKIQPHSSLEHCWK
T6 sequence (P11229 whole entry): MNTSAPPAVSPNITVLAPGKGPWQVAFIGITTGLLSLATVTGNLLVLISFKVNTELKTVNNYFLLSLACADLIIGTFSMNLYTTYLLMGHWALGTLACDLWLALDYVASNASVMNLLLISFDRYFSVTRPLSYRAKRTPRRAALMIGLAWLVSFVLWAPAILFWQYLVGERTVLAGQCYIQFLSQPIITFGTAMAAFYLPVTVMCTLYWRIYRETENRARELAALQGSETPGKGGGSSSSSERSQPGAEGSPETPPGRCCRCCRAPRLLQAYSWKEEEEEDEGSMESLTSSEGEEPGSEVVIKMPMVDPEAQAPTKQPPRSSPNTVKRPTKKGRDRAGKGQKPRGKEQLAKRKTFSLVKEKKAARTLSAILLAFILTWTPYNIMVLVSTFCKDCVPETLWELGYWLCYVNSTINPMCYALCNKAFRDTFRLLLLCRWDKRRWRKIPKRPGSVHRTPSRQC
T2 sequence (Q9H3N8 whole entry, species assumed): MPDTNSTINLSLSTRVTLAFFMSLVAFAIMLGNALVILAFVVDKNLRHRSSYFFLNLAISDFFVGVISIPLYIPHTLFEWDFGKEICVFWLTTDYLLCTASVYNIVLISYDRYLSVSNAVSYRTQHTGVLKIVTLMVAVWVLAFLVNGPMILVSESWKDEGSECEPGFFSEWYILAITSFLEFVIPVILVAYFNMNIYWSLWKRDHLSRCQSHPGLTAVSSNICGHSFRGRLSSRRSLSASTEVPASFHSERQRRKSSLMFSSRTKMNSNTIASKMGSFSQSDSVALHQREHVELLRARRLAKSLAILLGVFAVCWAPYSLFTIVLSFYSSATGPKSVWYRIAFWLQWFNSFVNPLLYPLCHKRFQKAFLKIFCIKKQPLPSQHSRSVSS
T5 sequence (P08912 whole entry): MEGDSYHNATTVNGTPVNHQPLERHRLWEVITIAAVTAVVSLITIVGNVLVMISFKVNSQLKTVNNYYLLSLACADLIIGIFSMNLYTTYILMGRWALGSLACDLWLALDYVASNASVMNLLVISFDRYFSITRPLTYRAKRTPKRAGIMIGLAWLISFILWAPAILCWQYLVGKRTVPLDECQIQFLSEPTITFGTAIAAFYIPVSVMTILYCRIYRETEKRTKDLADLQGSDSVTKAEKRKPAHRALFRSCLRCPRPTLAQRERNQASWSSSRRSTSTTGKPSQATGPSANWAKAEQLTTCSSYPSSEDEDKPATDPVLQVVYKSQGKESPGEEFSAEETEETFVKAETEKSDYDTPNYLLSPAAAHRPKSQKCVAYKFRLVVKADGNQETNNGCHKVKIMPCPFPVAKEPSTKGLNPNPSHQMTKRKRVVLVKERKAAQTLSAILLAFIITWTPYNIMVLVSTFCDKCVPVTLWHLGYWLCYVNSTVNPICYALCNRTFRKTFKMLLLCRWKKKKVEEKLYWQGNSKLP
Sequence of Histamine H2 receptor (P25021 whole entry): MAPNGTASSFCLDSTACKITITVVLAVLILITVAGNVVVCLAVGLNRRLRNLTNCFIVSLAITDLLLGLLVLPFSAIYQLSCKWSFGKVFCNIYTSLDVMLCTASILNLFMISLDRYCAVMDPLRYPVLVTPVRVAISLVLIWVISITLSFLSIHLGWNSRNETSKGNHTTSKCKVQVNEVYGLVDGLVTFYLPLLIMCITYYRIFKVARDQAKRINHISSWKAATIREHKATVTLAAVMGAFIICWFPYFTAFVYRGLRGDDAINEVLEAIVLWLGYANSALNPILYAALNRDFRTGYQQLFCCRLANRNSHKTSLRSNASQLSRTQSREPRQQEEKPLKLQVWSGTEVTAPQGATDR
Sequence of Dopamine D2 receptor (P61169 1-415 isoform P61169-2): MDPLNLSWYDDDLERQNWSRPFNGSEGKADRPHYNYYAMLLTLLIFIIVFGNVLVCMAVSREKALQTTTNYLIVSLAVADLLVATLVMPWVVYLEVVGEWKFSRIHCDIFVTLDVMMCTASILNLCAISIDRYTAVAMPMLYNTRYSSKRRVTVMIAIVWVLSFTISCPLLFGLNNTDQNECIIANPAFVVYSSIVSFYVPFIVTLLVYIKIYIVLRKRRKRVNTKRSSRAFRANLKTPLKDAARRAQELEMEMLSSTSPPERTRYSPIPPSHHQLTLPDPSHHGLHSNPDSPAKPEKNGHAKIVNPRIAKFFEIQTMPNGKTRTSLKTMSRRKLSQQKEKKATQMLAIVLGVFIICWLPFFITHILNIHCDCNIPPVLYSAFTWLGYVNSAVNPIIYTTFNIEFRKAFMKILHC
T8 sequence (P20309 whole entry): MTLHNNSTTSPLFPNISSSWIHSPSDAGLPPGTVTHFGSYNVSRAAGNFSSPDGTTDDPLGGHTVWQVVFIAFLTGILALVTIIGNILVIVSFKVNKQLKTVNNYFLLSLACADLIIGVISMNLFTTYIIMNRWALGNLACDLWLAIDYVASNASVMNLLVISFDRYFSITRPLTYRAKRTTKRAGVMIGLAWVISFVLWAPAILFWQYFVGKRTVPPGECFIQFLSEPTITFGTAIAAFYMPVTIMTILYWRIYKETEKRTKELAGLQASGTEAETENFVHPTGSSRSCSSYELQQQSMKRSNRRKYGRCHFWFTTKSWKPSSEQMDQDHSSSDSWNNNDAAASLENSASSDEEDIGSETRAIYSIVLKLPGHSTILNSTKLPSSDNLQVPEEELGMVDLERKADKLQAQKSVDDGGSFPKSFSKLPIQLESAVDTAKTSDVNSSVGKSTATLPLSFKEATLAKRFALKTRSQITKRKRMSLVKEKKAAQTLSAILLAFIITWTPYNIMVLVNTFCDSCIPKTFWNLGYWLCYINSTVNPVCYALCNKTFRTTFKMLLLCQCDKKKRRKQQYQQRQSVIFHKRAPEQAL
T3 sequence (Q60492 whole entry): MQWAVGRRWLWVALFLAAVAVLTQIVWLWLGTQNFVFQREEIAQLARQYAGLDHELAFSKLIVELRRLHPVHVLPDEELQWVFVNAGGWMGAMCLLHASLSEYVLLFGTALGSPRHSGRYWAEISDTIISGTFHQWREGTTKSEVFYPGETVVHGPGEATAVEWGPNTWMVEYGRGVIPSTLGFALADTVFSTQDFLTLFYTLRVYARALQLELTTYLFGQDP
T7 sequence (P19020 whole entry): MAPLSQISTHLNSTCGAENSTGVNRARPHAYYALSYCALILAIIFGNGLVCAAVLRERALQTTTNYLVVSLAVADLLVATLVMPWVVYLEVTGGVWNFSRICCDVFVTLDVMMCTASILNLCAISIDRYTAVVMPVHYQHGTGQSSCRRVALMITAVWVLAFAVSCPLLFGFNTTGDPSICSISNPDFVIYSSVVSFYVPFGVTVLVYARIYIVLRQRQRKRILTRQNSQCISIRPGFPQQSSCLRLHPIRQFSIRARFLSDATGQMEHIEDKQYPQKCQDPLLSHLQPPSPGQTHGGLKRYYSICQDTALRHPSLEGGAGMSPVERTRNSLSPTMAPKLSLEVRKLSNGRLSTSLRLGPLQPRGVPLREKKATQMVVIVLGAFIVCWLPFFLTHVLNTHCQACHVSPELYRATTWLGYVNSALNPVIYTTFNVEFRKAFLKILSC
T1 sequence (H0V073 1-176): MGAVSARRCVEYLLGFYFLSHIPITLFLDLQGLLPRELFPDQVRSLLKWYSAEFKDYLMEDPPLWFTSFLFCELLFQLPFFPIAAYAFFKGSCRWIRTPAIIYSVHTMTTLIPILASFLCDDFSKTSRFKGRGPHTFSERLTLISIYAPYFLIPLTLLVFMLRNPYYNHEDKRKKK

SMILES: CN(C)CCC(Oc1cccc2c1OCO2)c1ccc(OCCCN2CCCCC2)cc1.O=C(O)C(=O)O (stereo not shown) [Compound 11b, 3-(benzo[d][1,3]dioxol-4-yloxy)-N,N-dimethyl-3-(4-(3-(piperidin-1-yl)propoxy)phenyl)propan-1-amine oxalate]
- total travel distance (locomotor activity) [1]: did not significantly alter the total travel distance
- Ki [2]: > 1000 nM
- Ki [3]: > 1000 nM
- Ki [4]: > 1000 nM
- Ki [5]: > 1000 nM
- Ki [6]: > 1000 nM
- Ki [7]: > 1000 nM
- Ki ([8]; rat cerebral cortex, [3H]-paroxetine, means ± SEM of three experiments, read-out: Receptor Affinity Ki ± SEM SERT): 7.8 ± 0.9 nM
- potency ratio among SERT, NET, and H3 ([8]; ratio of binding Ki values for SERT, NET, H3): < 10 fold
- Ki [9]: > 1000 nM
- Ki [10]: > 1000 nM
- Ki [11]: > 1000 nM
- minimal effective dose (MED) in FST [12]: 6 mg/kg
- inhibition at 10 µM ([13]; 10 μM, n = 3): > 90%
- IC50 ([13]; antagonist assay, RAMH-induced [35S]GTPγS binding): 0.72 nM
- Activation (10 μM, %) SERT ([14]; 10 μM, n = 3): 4.4 ± 0.3%
- inhibition at 10 µM ([14]; 10 μM, n = 3): > 90%
- IC50 ([14]; [3H]5-HT uptake, antagonist assay): 20.1 nM
- Ki [15]: > 1000 nM
